Data on 46 molecules can be found in ChEMBL document CHEMBL3046359, “QSAR and pharmacophore studies of telomerase inhibitors” (Med Chem Res, 2012).

Experiment [1] deals with Telomerase reverse transcriptase (Homo sapiens) (UniProt O14746). Description: Inhibition of Homo sapiens (human) telomerase.
The target is the same in experiment [2]. Put plainly: Inhibition of telomerase (unknown origin).
Experiment [3] has the same target. Put plainly: Inhibition of telomerase in Homo sapiens (human) A549 cells after 24 hr by TRAP assay. In kind it is cell-based.
For experiment [4] the target is unchanged. Put plainly: Inhibition of telomerase in Homo sapiens (human) A549 cells by TRAP assay. Type of experiment: cell-based.

Telomerase reverse transcriptase (Homo sapiens), sequence (O14746 whole entry): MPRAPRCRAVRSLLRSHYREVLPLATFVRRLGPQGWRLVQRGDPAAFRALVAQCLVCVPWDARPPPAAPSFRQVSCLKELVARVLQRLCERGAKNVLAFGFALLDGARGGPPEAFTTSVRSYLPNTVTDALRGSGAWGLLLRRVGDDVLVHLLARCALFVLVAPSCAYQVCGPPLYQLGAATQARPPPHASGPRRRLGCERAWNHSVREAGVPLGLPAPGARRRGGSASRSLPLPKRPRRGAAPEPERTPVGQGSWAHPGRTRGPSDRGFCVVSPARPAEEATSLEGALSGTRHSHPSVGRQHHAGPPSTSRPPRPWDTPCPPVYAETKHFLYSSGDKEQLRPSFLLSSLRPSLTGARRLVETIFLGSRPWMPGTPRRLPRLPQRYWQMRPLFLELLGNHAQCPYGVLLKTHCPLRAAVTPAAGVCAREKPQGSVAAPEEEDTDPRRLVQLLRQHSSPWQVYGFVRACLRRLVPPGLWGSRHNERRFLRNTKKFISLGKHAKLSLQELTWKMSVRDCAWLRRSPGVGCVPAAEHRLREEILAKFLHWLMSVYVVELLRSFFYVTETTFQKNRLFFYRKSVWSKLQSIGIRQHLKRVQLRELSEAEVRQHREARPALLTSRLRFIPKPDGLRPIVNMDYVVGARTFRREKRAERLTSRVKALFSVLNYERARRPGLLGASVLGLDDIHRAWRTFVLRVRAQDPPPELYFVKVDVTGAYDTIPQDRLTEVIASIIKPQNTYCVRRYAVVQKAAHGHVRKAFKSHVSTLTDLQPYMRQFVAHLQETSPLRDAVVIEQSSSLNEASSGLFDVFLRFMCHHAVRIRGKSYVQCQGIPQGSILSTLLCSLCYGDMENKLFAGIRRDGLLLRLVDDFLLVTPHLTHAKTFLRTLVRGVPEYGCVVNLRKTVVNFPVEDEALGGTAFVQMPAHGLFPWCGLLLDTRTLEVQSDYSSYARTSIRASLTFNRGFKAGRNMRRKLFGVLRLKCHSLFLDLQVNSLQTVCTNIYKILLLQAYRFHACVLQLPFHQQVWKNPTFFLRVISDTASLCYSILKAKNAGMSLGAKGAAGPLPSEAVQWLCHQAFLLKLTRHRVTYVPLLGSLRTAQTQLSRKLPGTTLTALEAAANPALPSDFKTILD

`Cc1cn(CCCn2cc(CC(=O)NCCCCCCCCCCCC(=O)O)c3ccccc32)c2ccccc12`: the logIC50 in experiment [1] came to 1.3.

`Cc1oc2nc1-c1nc(co1)-c1nc(co1)-c1nc(co1)-c1nc(co1)-c1nc(co1)C1=NC(CS1)c1nc-2c(C)o1` (stereo unspecified) yielded a logIC50 in experiment [2] of -2.3.

In the case of `CN(C)CCCNc1nc2ccccc2c2[nH]c3c4cc([N+](=O)[O-])ccc4ccc3c12`, the logIC50 in experiment [2] was -0.3.

The molecule `CC[N+](C)(CC)CCC(=O)Nc1ccc2c(c1)C(=O)c1cc(NC(=O)CC[N+](C)(CC)CC)ccc1-2` showed a logIC50 in experiment [2] of 1.4.

`O=C(CCN1CCCCCC1)Nc1ccc2cc3ccc(NC(=O)CCN4CCCCCC4)cc3nc2c1`: the logIC50 in experiment [3] amounted to 0.49.

For `O=C(O)CCCCCCCCCCCNC(=O)Cc1cn(CCn2ccc3ccccc32)c2ccccc12`, the logIC50 in experiment [1] is 1.61.

In experiment [2], `O=C(CCN1CCCCC1CCO)Nc1ccc2c(c1)C(=O)c1cc(NC(=O)CCN3CCCCC3CCO)ccc1-2` (stereo unspecified) came in with a logIC50 of 1.22.

For `CCN1CCN(CCC(=O)Nc2ccc3c(c2)C(=O)c2cc(NC(=O)CCN4CCN(CC)CC4)ccc2-3)CC1`, the logIC50 in experiment [2] was 1.23.

The molecule `C[N+](C)(C)CCC(=O)Nc1ccc2c(c1)C(=O)c1cc(NC(=O)CC[N+](C)(C)C)ccc1-2` registered a logIC50 in experiment [2] of 1.27.

As for `O=C(O)CCCCCCCCCCCNC(=O)Cc1c2n(c3ccccc13)CCn1c-2cc2ccccc21`, the logIC50 in experiment [4] was determined as 1.79.

Molecule `CCCNCc1ccc2nc3ccc4cc5cc(CNCCC)ccc5nc4c3cc2c1` had a logIC50 in experiment [2] of -0.52.

In experiment [2], `CCC1CCCCN1CCC(=O)Nc1ccc2c(c1)C(=O)c1cc(NC(=O)CCN3CCCCC3CC)ccc1-2` (stereo unspecified) gave a logIC50 of 1.15.

`COc1ccc2c(ccc3c2[nH]c2c4ccccc4nc(NCCCN(C)C)c32)c1`: the logIC50 in experiment [2] came to 0.

In the case of `O=C(CCN1CCCC1)Nc1ccc2c(c1)C(=O)c1ccc(NC(=O)CCN3CCCC3)cc1C2=O`, the logIC50 in experiment [3] was determined as 0.25.

In experiment [2], `COc1ccc2ccc3c([nH]c4c5ccccc5nc(NCCN(C)C)c34)c2c1` showed a logIC50 of 0.1.

`O=C(O)CCCCCCCCCCCNC(=O)Cc1cn(CCCOc2ccccc2)c2ccccc12` had a logIC50 in experiment [1] of 1.51.

In turn, `CCN(CC)CCOc1ccc2c(c1)OC1C(=O)c3ccccc3C(=O)C21` (stereo unspecified) came in with a logIC50 in experiment [2] of 0.84.

For the molecule `O=C(CCN1CCCCC1)Nc1ccc2c(c1)C(=O)c1cc(NC(=O)CCN3CCCCC3)ccc1-2`, the logIC50 in experiment [2] is 0.95.

On to `C[N+]1(CCC(=O)Nc2ccc3c(c2)C(=O)c2cc(NC(=O)CC[N+]4(C)CCCCC4CO)ccc2-3)CCCCC1CO` (stereo unspecified), for which the logIC50 in experiment [2] was determined as 1.52.

Consider `CN(C)CCc1ccc2nc3c4ccccc4n(CCN(C)C)c3cc2c1`, for which, in experiment [2], the logIC50 was 1.2.

Molecule `CC1CCCCN1CCC(=O)Nc1ccc2c(c1)C(=O)c1cc(NC(=O)CCN3CCCCC3C)ccc1-2` (stereo unspecified) came in with a logIC50 in experiment [2] of 1.08.

In experiment [1], `O=C(O)CCCCCCCCCCCNC(=O)Cc1cn(CCOc2cccc3ccccc23)c2ccccc12` yielded a logIC50 of 1.54.

Molecule `CN(C)CCC(=O)Nc1ccc2c(c1)C(=O)c1cc(NC(=O)CCN(C)C)ccc1-2` had a logIC50 in experiment [2] of 1.21.

`CCCNCc1ccc2nc3ccc4nc5ccc(CNCCC)cc5cc4c3cc2c1`: in experiment [2], the logIC50 is 0.

In experiment [3], `O=C(CCN1CCCCC1)Nc1ccc2cc3ccc(NC(=O)CCN4CCCCC4)cc3nc2c1` gave a logIC50 of 0.45.

Turning to `C[N+]1(CCC(=O)Nc2ccc3c(c2)C(=O)c2cc(NC(=O)CC[N+]4(C)CCCCC4)ccc2-3)CCCCC1`, the logIC50 in experiment [2] amounted to 1.32.

As to `O=C(O)CCCCCCCCCCCNC(=O)Cc1cn(CCCOC2CCCCC2)c2ccccc12`, the logIC50 in experiment [1] worked out at 1.83.

In the case of `C[N+]1(CCC(=O)Nc2ccc3c(c2)C(=O)c2cc(NC(=O)CC[N+]4(C)CCOCC4)ccc2-3)CCOCC1`, the logIC50 in experiment [2] stood at 1.44.

Molecule `O=C(CCN1CCCCCC1)Nc1ccc2c(c1)C(=O)c1ccc(NC(=O)CCN3CCCCCC3)cc1C2=O` gave a logIC50 in experiment [3] of 1.11.

`CN1CCN(CCC(=O)Nc2ccc3c(c2)C(=O)c2cc(NC(=O)CCN4CCN(C)CC4)ccc2-3)CC1` had a logIC50 in experiment [2] of 1.64.

Turning to `O=C(CCN1CCC(O)CC1)Nc1ccc2c(c1)C(=O)c1cc(NC(=O)CCN3CCC(O)CC3)ccc1-2`, the logIC50 in experiment [2] is 1.27.

Consider `O=C(CCN1CCCCC1CO)Nc1ccc2c(c1)C(=O)c1cc(NC(=O)CCN3CCCCC3CO)ccc1-2` (stereo unspecified), for which, in experiment [2], the logIC50 worked out at 0.9.

`C[n+]1cccc2cc(Nc3nc(N)nc(Nc4ccc5c(ccc[n+]5C)c4)n3)ccc21` returned a logIC50 in experiment [2] of -0.89.

Consider `CCCNCc1ccc2nc3c(ccc4cc5cc(CNCCC)ccc5nc43)cc2c1`, for which the logIC50 in experiment [2] was -0.3.

In experiment [2], `CCCNCc1cc2nc3ccccc3cc2c2cc3ccccc3nc12` had a logIC50 of 0.16.

`O=C(O)CCCCCCCCCCCNC(=O)Cc1cn(CCCn2ccc3ccccc32)c2ccccc12`: the logIC50 in experiment [1] amounted to 1.96.

Turning to `C[N+](C)(C)c1ccc(Nc2nc(N)nc(Nc3ccc([N+](C)(C)C)cc3)n2)cc1`, in experiment [2], the logIC50 was 0.84.

`O=C(CCN1CCCC1)Nc1ccc2cc3ccc(NC(=O)CCN4CCCC4)cc3nc2c1` came in with a logIC50 in experiment [3] of 0.72.

In experiment [2], `c1ccc2nc3cc(CNCCN4CCCCC4)c4nc5ccccc5cc4c3cc2c1` yielded a logIC50 of 0.3.

Take `CCN(CC)CCC(=O)Nc1ccc2c(c1)C(=O)c1cc(NC(=O)CCN(CC)CC)ccc1-2`: in experiment [2], the logIC50 is 1.19.

`CN(C)CCCNCc1ccc2nc3ccc4cc5cc(CNCCCN(C)C)ccc5nc4c3cc2c1` returned a logIC50 in experiment [2] of -1.55.

`CN(C)CCCNCc1ccc2nc3c(ccc4cc5cc(CNCCCN(C)C)ccc5nc43)cc2c1` registered a logIC50 in experiment [2] of -0.04.

As for `CN(C)CCCNCc1cc2nc3ccccc3cc2c2cc3ccccc3nc12`, the logIC50 in experiment [2] is -0.12.

Take `Cc1c2n(c3ccccc13)CCCn1c-2c(CC(=O)NCCCCCCCCCCCC(=O)O)c2ccccc21`: in experiment [1], the logIC50 amounted to 1.91.

With `O=C(CCN1CCCCC1)Nc1ccc2c(c1)C(=O)c1ccc(NC(=O)CCN3CCCCC3)cc1C2=O`, in experiment [3], the logIC50 was 0.65.

Molecule `CSc1nc(Nc2ccc3nc(C)cc(N(C)C)c3c2)nc(Nc2ccc3nc(C)cc(N(C)C)c3c2)n1` had a logIC50 in experiment [2] of -1.39.
